In ChEMBL document CHEMBL4602647, “Protective effects of 10,11-dihydro-5H-dibenzo[b,f]azepine hydroxamates on vascular cognitive impairment” (Eur J Med Chem, 2020):
pIC50: −log10 of the molar value. Calls of active or inactive are those of the source. The calls are words filed in the database; no cut-off is given here.

Experiments:
SH-SY5Y [1] = assay: Neuroprotective activity against OGD-induced hypoxic injury in human SH-SY5Y cells assessed as LDH release at 1 nM to 10 uM incubated under oxygen/glucose deprivation-induced hypoxic medium by LDH assay; format: functional, cell-based
[2] = target: T1, Protein deacetylase HDAC6 (Homo sapiens, UniProt Q9UBN7); assay: Inhibition of recombinant human N-terminal GST-tagged HDAC6 (1 to 1215 residues) expressed in baculovirus infected insect cells using RHK-K(Ac)-AMC as substrate after 90 mins by fluorimetry analysis
T1 sequence (Q9UBN7 whole entry): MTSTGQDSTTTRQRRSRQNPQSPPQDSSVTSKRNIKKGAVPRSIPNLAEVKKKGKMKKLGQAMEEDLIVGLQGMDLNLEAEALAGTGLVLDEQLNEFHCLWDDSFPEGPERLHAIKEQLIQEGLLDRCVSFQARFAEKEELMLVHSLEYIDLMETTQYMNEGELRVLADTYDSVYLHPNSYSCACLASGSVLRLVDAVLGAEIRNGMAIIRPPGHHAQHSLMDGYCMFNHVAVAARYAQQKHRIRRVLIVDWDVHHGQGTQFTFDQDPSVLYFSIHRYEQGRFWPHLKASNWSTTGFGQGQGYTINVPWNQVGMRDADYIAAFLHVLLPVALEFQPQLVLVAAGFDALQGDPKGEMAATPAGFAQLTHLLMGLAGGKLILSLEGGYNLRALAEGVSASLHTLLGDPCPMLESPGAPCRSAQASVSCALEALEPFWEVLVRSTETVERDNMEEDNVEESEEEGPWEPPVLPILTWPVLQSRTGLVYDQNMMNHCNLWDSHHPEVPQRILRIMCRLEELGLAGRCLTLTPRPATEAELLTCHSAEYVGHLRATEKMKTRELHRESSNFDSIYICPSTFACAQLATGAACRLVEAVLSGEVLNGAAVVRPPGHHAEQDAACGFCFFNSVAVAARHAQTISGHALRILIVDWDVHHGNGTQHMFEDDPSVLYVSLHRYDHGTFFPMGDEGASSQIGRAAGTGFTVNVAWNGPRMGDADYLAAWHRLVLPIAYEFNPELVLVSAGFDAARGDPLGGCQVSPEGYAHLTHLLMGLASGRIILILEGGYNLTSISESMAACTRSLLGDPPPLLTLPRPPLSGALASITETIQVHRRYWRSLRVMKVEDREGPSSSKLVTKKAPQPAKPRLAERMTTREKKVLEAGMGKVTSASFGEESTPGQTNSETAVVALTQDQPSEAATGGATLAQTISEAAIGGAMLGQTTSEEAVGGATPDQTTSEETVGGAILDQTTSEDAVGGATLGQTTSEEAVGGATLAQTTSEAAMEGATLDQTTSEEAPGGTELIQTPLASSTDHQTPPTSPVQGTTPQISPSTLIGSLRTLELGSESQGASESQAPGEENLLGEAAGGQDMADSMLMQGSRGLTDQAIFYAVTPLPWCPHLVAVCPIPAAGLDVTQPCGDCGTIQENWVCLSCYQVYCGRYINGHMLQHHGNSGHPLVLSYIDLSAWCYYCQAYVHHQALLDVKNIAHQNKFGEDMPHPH

Histone deacetylase 8 = target: T2, Histone deacetylase 8 (Homo sapiens, UniProt Q9BY41); assay: Inhibition of recombinant C-terminal His-tagged and N-terminal Streptavidin2-tagged human HDAC8 (1 to 377 residues) expressed in baculovirus infected insect cells using RHK-K(Ac)-AMC as substrate after 60 mins by fluorescence assay
T2 sequence (Q9BY41 whole entry): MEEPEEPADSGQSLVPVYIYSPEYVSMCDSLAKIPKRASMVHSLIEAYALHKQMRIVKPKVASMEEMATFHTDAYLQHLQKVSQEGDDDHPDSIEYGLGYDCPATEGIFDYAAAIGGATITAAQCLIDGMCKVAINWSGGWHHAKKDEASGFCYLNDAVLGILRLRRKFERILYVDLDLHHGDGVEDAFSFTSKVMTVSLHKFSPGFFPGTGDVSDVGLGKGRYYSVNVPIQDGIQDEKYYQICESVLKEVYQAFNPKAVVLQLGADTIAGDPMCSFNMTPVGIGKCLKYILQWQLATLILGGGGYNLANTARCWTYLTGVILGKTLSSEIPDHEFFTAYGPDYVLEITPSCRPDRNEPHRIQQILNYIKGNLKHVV

Histone deacetylase 2 = Histone deacetylase 2 (Homo sapiens, UniProt Q92769); assay: Inhibition of recombinant human C-terminal GST-tagged HDAC2 (1 to 488 residues) expressed in baculovirus infected sf21 cells using RHK-K(Ac)-AMC as substrate after 60 mins by fluorimetry assay; conditions: for IC50: sf21; for pIC50: read-out: IC50
Chain of Histone deacetylase 2 (Q92769 whole entry, the tested form may be a part): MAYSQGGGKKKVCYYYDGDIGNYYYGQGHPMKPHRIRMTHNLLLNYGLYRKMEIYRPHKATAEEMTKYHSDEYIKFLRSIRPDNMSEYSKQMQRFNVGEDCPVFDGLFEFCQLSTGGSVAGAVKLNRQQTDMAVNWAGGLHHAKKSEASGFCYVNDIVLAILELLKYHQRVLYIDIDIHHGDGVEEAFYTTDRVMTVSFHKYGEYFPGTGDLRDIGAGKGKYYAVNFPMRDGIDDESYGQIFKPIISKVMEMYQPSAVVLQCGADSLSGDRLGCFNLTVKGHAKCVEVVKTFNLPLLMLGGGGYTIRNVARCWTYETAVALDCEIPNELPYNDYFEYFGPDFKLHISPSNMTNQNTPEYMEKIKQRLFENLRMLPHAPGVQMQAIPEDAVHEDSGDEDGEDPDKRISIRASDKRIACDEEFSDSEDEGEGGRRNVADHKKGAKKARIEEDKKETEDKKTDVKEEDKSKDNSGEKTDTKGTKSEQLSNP

Histone deacetylase 1 = Histone deacetylase 1 (Homo sapiens, UniProt Q13547); assay: Inhibition of recombinant full length human C-terminal FLAG/His-tagged HDAC1 (1 to 482 residues) expressed in baculovirus infected Sf21 cells using RHK-K(Ac)-AMC as substrate measured after 60 mins by fluorimetric assay; conditions: for IC50: sf21; for pIC50: read-out: IC50
Chain of Histone deacetylase 1 (Q13547 whole entry, the tested form may be a part): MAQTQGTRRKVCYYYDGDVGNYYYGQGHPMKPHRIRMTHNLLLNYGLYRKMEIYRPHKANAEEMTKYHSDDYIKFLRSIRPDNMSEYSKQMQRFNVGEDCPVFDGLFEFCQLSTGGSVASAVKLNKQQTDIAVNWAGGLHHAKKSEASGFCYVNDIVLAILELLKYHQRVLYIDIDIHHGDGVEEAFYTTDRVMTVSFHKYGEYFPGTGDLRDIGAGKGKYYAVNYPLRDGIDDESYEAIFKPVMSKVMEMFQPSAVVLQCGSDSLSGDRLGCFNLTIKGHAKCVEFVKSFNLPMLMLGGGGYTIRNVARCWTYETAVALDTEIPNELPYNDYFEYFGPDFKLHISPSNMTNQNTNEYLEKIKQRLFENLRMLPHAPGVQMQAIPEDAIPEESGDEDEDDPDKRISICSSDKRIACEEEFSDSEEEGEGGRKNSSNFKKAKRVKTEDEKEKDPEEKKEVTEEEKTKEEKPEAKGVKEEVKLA

SH-SY5Y [3] = assay: Neuroprotective activity against OGD-induced hypoxic injury in human SH-SY5Y cells assessed as LDH release at 10 uM incubated under oxygen/glucose deprivation-induced hypoxic medium by LDH assay (reference value: 27.47 +/- 3.23 %); format: functional
SH-SY5Y [4] = assay: Neuroprotective activity against OGD-induced hypoxic injury in human SH-SY5Y cells assessed as LDH release at 5 uM incubated under oxygen/glucose deprivation-induced hypoxic medium by LDH assay (reference value: 27.47 +/- 3.23 %); format: functional
SH-SY5Y [5] = assay: Neuroprotective activity against OGD-induced hypoxic injury in human SH-SY5Y cells assessed as LDH release at 1 uM incubated under oxygen/glucose deprivation-induced hypoxic medium by LDH assay (reference value: 27.47 +/- 3.23 %); format: functional
Mus musculus [6] = assay: (§1) Anti-vascular cognitive impairment activity against bilateral common carotid artery occlusion-induced vascular dementia C57BL/6J mouse model assessed as reversal of hippocampal atrophy by measuring increase in hippocampal volume at 25 mg/kg, ip administered post surgery measured after 3 months by 7T-MRI analysis; format: functional, organism-based
Mus musculus [7] = assay: Upregulation of acetylated H3K14 protein expression in hippocampus of bilateral common carotid artery occlusion-induced vascular dementia C57BL/6J mouse model at 25 mg/kg, ip measured after 3 months by Western blot analysis; format: functional, organism-based
Mus musculus [8] = assay: as §1, with “ratio of size of hippocampus to lateral ventricle” for “hippocampal volume”; format: functional, organism-based
Mus musculus [9] = assay: (§2) Anti-vascular cognitive impairment activity against bilateral common carotid artery occlusion-induced vascular dementia C57BL/6J mouse model assessed as ratio of cerebral blood flow in right parietal area at 25 mg/kg, ip administered post surgery measured after 3 months (reference value: 0.761 +/- 0.037); format: functional
Mus musculus [10] = assay: (§3) Anti-vascular cognitive impairment activity against bilateral common carotid artery occlusion-induced vascular dementia C57BL/6J mouse model assessed as improvement in short-term non-spatial working memory by measuring increase in novel object recognition at 25 mg/kg, ip administered post surgery measured after 3 months by novel object recognition test; format: functional, organism-based
Mus musculus [11] = assay: as §2, with “left” for “right”, “months(reference” for “months (reference”, “0.792” for “0.761”, “0.029)” for “0.037)”; format: functional
Mus musculus [12] = assay: as §3, with “1 month” for “3 months”; format: functional, organism-based

`O=C(CCC(=O)NCCCN1c2ccccc2CCc2ccc(Cl)cc21)NO` was tested, and the Activity (SH-SY5Y [1]) was “inactive”, the pIC50 [2] was less than 5.00 and the pIC50 (Histone deacetylase 8) was less than 5.00. The IC50 (Histone deacetylase 2) was “Not Active” and the IC50 (Histone deacetylase 1) was “Not Active”.

`O=C(CCCCCCCC(=O)NCCCN1c2ccccc2CCc2ccc(Cl)cc21)NO` gave an Activity (SH-SY5Y [3]) of 76.55%, a pIC50 [2] of 6.84 and a pIC50 (Histone deacetylase 8) of 5.97. For the same compound, the Activity (SH-SY5Y [4]) was 100.96%, the pIC50 (Histone deacetylase 2) was 5.56 and the pIC50 (Histone deacetylase 1) was 5.47.

With `O=C(NO)c1ccc(CNCCCN2c3ccccc3CCc3ccc(Cl)cc32)cc1` the Activity (SH-SY5Y [1]) was “inactive”, the pIC50 [2] was 5.58 and the pIC50 (Histone deacetylase 8) was 5.82. For the same compound, the IC50 (Histone deacetylase 2) was “Not Active” and the IC50 (Histone deacetylase 1) was “Not Active”.

With `CN(C)CCCN1c2ccccc2CCc2ccc(Cl)cc21` the Activity (SH-SY5Y [1]) was “inactive”.

With `O=C(CCCCC(=O)NCCCN1c2ccccc2CCc2ccc(Cl)cc21)NO` the Activity (SH-SY5Y [1]) was “inactive”, the pIC50 [2] was 5.68 and the pIC50 (Histone deacetylase 8) was 5.51. The pIC50 (Histone deacetylase 2) was 5.02 and the pIC50 (Histone deacetylase 1) was 5.17.

`O=C(CCCCCCCCC(=O)NCCCN1c2ccccc2CCc2ccc(Cl)cc21)NO` gave an Activity (SH-SY5Y [3]) of 65.87%, a pIC50 [2] of 6.85 and a pIC50 (Histone deacetylase 8) of 6.06. It also gave an Activity (SH-SY5Y [4]) of 84.35%, a pIC50 (Histone deacetylase 2) of 5.52 and a pIC50 (Histone deacetylase 1) of 5.26.

Compound `O=C(CCCCCC(=O)NCCCN1c2ccccc2CCc2ccc(Cl)cc21)NO` has an Activity (SH-SY5Y [3]) of 92.47%, a pIC50 [2] of 7.21 and a pIC50 (Histone deacetylase 8) of 6.46. It also gave an Activity (SH-SY5Y [4]) of 86.54%, a pIC50 (Histone deacetylase 2) of 5.40 and a pIC50 (Histone deacetylase 1) of 5.67.

For `O=C(CCCCCCC(=O)NCCCN1c2ccccc2CCc2ccc(Cl)cc21)NO`, the Activity (SH-SY5Y [3]) was 97.21%, the pIC50 [2] was 6.18 and the pIC50 (Histone deacetylase 8) was 5.63. For the same compound, the Activity (SH-SY5Y [5]) was 43.16%, the Activity (SH-SY5Y [4]) was 74.3% and the IC50 (Histone deacetylase 2) was “Not Active”. The IC50 (Histone deacetylase 1) was “Not Active”.

Compound `O=C(/C=C/c1cccc(S(=O)(=O)NCCCN2c3ccccc3CCc3ccc(Cl)cc32)c1)NO` has a pIC50 [2] of 6.09, a pIC50 (Histone deacetylase 8) of 5.67 and a pIC50 (Histone deacetylase 2) of 5.07. It also gave a pIC50 (Histone deacetylase 1) of 5.22.

`O=C(CCCCCCC(=O)Nc1ccccc1)NO` [VORINOSTAT] was tested, and the Activity (Mus musculus [6]) was “inactive”, the Activity (Mus musculus [7]) was “inactive” and the Activity (Mus musculus [8]) was “inactive”. The Ratio (Mus musculus [9]) was 0.83, the Activity (Mus musculus [10]) was “inactive” and the Ratio (Mus musculus [11]) was 0.878. For the same compound, the Activity (Mus musculus [12]) was “Active”.

With `O=C(CCCC(=O)NCCCN1c2ccccc2CCc2ccc(Cl)cc21)NO` the Activity (SH-SY5Y [1]) was “inactive”, the pIC50 [2] was 5.84 and the pIC50 (Histone deacetylase 8) was 5.73. The pIC50 (Histone deacetylase 2) was 5.22 and the pIC50 (Histone deacetylase 1) was 5.29.

`O=C(NO)c1ccc(C(=O)NCCCN2c3ccccc3CCc3ccc(Cl)cc32)cc1` was tested, and the Activity (SH-SY5Y [3]) was 30.74%, the pIC50 [2] was 6.35 and the pIC50 (Histone deacetylase 8) was 5.75. It also gave a pIC50 (Histone deacetylase 2) of 5.06 and a pIC50 (Histone deacetylase 1) of 5.14.

In the case of `O=C(/C=C/c1ccc(S(=O)(=O)NCCCN2c3ccccc3CCc3ccc(Cl)cc32)cc1)NO`, the pIC50 [2] was 6.12, the pIC50 (Histone deacetylase 8) was 6.06 and the IC50 (Histone deacetylase 2) was “Not Active”. For the same compound, the pIC50 (Histone deacetylase 1) was less than 5.00.
